The source of these data is US8067598B2, “Heterofused piperidines as orexin antagonists” (Hoffman-La Roche Inc., priority 2007, dated 2011).

For test [1], the target named is T1, human orexin-2 (hOX2) receptors (Homo sapiens, UniProt O43614).
T1 construct: expressed in transfected cells
T1 sequence (O43614 1-444): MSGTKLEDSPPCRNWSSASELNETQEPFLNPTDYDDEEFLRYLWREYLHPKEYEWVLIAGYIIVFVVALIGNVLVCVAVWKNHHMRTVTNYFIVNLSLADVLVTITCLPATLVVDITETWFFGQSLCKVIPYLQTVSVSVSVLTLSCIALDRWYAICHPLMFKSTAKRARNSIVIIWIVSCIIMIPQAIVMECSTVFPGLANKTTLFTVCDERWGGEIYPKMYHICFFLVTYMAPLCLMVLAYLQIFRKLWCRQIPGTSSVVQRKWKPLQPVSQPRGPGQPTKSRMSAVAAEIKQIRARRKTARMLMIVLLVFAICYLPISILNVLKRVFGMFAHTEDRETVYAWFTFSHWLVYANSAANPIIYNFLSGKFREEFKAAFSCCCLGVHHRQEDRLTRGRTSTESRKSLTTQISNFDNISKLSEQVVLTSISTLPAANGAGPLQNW
The experiment in a line: Intracellular Ca2+ mobilization assay (FLIPR), CHO(dHFr-) cells expressing hOX2. The following applies: antagonism of orexin-A at EC80; Kb=IC50/(1+[A]/EC50); CHO(dHFr-)-OX2R cells. It counts as cell-based. The procedure: (§1) Intracellular Ca^2+ Mobilization Assay
(§2) The Chinese Hamster Ovary (dHFr-) mutant cell line stably expressing human orexin-1 (hOX1) or human orexin-2 (hOX2) receptors were maintained in Dulbecco's Modified Eagle Medium (1X) with GlutaMax™ 1, 4500 mg/L D-Glucose and Sodium Pyruvate (Catalog No. 31966-021, Invitrogen, Carlsbad, Calif.), 5% dialyzed fetal calf serum (Catalog No. 26400-044), 100 μg/ml penicillin and 100 μg/ml streptomycin. The cells were seeded at 5×10^4 cells/well in the poly-D-lysine treated, 96-well, black/clear-bottomed plates (Catalog No. BD356640, BD Biosciences, Palo Alto, Calif.). 24 h later, the cells were loaded for 1 h at 37° C. with 4 μM Flou-4 acetoxymethyl ester (Catalog No. F-14202, Molecular Probes, Eugene, Oreg.) in FLIPR buffer (1×HBSS, 20 mM HEPES, 2.5 mM Probenecid). Hanks' Balanced Salt Solution (HBSS) (10X) (catalog No. 14065-049) and HEPES (1M) (catalog No. 15630-056) were purchased from Invitrogen, Carlsbad, Calif. Probenecid (250 mM) (catalog No. P8761) was from Sigma, Buchs, Switzerland. The cells were washed five times with FLIPR buffer to remove excess dye and intracellular calcium mobilization, [Ca^2+]i were measured using a Fluorometric Imaging Plate Reader (FLIPR-96, Molecular Devices, Menlo Park, Calif.) as described previously (Malherbe et al., Mol. Pharmacol., 64, 823-832, 2003). Orexin A (catalog No. 1455, Toris Cookson Ltd, Bristol, UK) was used as agonist. Orexin A ([…] stock solution in DMSO) was diluted in FLIPR buffer+0.1% BSA. The EC50 and EC80 values of orexin-A were measured daily from standard agonist concentration-response curves in CHO(dHFr-)-OX1R and -OX2R cell lines. All compounds were dissolved in 100% DMSO. Inhibition curves were determined by addition of 11 concentrations (0.0001-10 μM) of inhibitory compounds and using EC80 value of orexin-A as agonist (a concentration which gave 80% of max agonist response, determined daily). The antagonists were applied 25 min (incubation at 37° C.) before the application of the agonist. Responses were measured as peak increase in fluorescence minus basal, normalized to the maximal stimulatory effect induced by EC80 value of orexin-A or orexin-B. Inhibition curves were fitted according to the Hill equation: y=100/(1+(x/IC50)^nH), where nH=slope factor using Excel-fit 4 software (Microsoft).
(§3) Kb values were calculated according to the following equation Kb=IC50/(1+[A]/EC50) where A is the concentration of agonist added which is very close to agonist EC80 value, and IC50 and EC50 values were derived from the antagonist inhibition and orexin-A or B agonist curves, respectively.

Test [2] addresses T2, human orexin-1 (hOX1) receptors (Homo sapiens, UniProt O43613).
T2 construct: expressed in transfected cells
T2 sequence (O43613 1-425): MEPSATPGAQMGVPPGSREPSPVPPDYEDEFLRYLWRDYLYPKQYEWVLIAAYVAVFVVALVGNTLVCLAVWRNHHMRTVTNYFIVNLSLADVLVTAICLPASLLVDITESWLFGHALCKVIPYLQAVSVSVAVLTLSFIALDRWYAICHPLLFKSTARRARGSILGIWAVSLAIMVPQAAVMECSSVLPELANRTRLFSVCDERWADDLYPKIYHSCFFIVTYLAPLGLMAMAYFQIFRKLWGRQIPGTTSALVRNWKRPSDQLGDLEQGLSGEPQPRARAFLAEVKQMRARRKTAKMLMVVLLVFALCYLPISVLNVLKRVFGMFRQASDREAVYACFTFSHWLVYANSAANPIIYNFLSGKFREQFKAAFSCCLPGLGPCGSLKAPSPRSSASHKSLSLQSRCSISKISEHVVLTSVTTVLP
Briefly: Intracellular Ca2+ mobilization assay (FLIPR), CHO(dHFr-) cells expressing hOX1. Format: cell-based. The following applies: antagonism of orexin-A at EC80; Kb=IC50/(1+[A]/EC50); CHO(dHFr-)-OX1R cells. The method, then:
as §1, §2, §3

The Kb is the affinity of an antagonist, worked out from how it opposes an agonist. A high value points to a less potent antagonist. Take `CNC(=O)C(c1ccccc1)N1CCc2sc(Cl)cc2C1CCc1ccc(OC)cc1` (single isomer, unassigned) [Example 18, 2-{2-Chloro-4-[2-(4-methoxy-phenyl)-ethyl]-6,7-dihydro-4H-thieno[3,2-c]pyridin-5-yl}-N-methyl-2-phenyl-acetamide]: the Kb in test [1] was determined as 0.032 µM; in test [2], 0.0095 µM.
For `CNC(=O)C(c1ccccc1)N1CCc2sc(C)c(C)c2C1CCc1ccc(OC)cc1` (single isomer, unassigned) [Example 14, 2-{4-[2-(4-Methoxy-phenyl)-ethyl]-2,3-dimethyl-6,7-dihydro-4H-thieno[3,2-c]pyridin-5-yl}-N-methyl-2-phenyl-acetamide] the same measures were 0.0036 µM and 0.0221 µM.
`CNC(=O)C(c1ccccc1)N1CCc2ncccc2C1CCc1cccc(OC)c1` (single isomer, unassigned) [Example 23, 2-{5-[2-(3-Methoxy-phenyl)-ethyl]-7,8-dihydro-5H-[1,6]naphthyridin-6-yl}-N-methyl-2-phenyl-acetamide]: the antagonist dissociation constant (Kb) in test [1] was found to be 0.0852 µM; in test [2], 0.223 µM.
For `CNC(=O)C(c1ccccc1)N1CCc2sc(C)cc2C1CCc1ccc(C(F)(F)F)cc1` (single isomer, unassigned) [Example 6, N-Methyl-2-{2-methyl-4-[2-(4-trifluoromethyl-phenyl)-ethyl]-6,7-dihydro-4H-thieno[3,2-c]pyridin-5-yl}-2-phenyl-acetamide] the same measures were 0.0091 µM and 0.0401 µM.
For `CNC(=O)C(c1ccccc1)N1CCc2sc(C)c(C)c2C1CCc1ccc(OC)cc1` (single isomer, unassigned) [Example 15, 2-{4-[2-(4-Methoxy-phenyl)-ethyl]-2,3-dimethyl-6,7-dihydro-4H-thieno[3,2-c]pyridin-5-yl}-N-methyl-2-phenyl-acetamide] the same measures were 0.0169 µM and 0.408 µM.
For `CNC(=O)C(c1ccccc1)N1CCc2ncccc2C1CCc1ccc(F)cc1` (single isomer, unassigned) [Example 28, 2-{5-[2-(4-Fluoro-phenyl)-ethyl]-7,8-dihydro-5H-[1,6]naphthyridin-6-yl}-N-methyl-2-phenyl-acetamide] the same measures were 0.0601 µM and 0.301 µM.
Turning to `CNC(=O)C(c1ccccc1)N1CCc2sc(C)cc2C1CCc1ccc(OC)cc1` (single isomer, unassigned) [Example 7, 2-{4-[2-(4-Methoxy-phenyl)-ethyl]-2-methyl-6,7-dihydro-4H-thieno[3,2-c]pyridin-5-yl}-N-methyl-2-phenyl-acetamide], the Kb turned out to be 0.0266 µM in test [1] and 0.0311 µM in test [2].
Take `CNC(=O)C(c1ccccc1)N1CCc2sc(C)cc2C1CCc1ccc(OC)cc1` (single isomer, unassigned) [Example 8, 2-{4-[2-(4-Methoxy-phenyl)-ethyl]-2-methyl-6,7-dihydro-4H-thieno[3,2-c]pyridin-5-yl}-N-methyl-2-phenyl-acetamide]: the Kb in test [1] was found to be 0.0075 µM; in test [2], 0.0135 µM.
For `CNC(=O)C(c1ccccc1)N1CCc2sc(C)cc2C1CCc1ccc(C(F)(F)F)cc1` (single isomer, unassigned) [Example 4, N-Methyl-2-{2-methyl-4-[2-(4-trifluoromethyl-phenyl)-ethyl]-6,7-dihydro-4H-thieno[3,2-c]pyridin-5-yl}-2-phenyl-acetamide] the same measures were 0.0204 µM and 0.047 µM.
`CNC(=O)C(c1ccccc1)N1CCc2sc(C)cc2C1CCc1ccc(OC)cc1` (single isomer, unassigned) [Example 9, 2-{4-[2-(4-Methoxy-phenyl)-ethyl]-2-methyl-6,7-dihydro-4H-thieno[3,2-c]pyridin-5-yl}-N-methyl-2-phenyl-acetamide]: the Kb in test [1] is 0.0566 µM; in test [2], 0.408 µM.
For `CNC(=O)C(c1ccccc1)N1CCc2sc(C)c(C)c2C1CCc1ccc(OC)cc1` (single isomer, unassigned) [Example 13, 2-{4-[2-(4-Methoxy-phenyl)-ethyl]-2,3-dimethyl-6,7-dihydro-4H-thieno[3,2-c]pyridin-5-yl}-N-methyl-2-phenyl-acetamide] the same measures were 0.005 µM and 0.0402 µM.
As for `CNC(=O)C(c1ccccc1)N1CCc2sc(Cl)cc2C1CCc1ccc(OC)cc1` (single isomer, unassigned) [Example 17, 2-{2-Chloro-4-[2-(4-methoxy-phenyl)-ethyl]-6,7-dihydro-4H-thieno[3,2-c]pyridin-5-yl}-N-methyl-2-phenyl-acetamide], the Kb in test [1] was found to be 0.0462 µM; in test [2], 0.0162 µM.
For `CNC(=O)C(c1ccccc1)N1CCc2ncccc2C1CCc1ccc(C(F)(F)F)cc1` (single isomer, unassigned) [Example 26, N-Methyl-2-phenyl-2-{5-[2-(4-trifluoromethyl-phenyl)-ethyl]-7,8-dihydro-5H -[1,6]naphthyridin-6-yl}-acetamide] the same measures were 0.0356 µM and 0.348 µM.
Consider `CNC(=O)C(c1ccccc1)N1CCc2ccsc2C1CCc1ccc(C(F)(F)F)cc1` (single isomer, unassigned) [Example 16, N-Methyl-2-phenyl-2-{7-[2-(4-trifluoromethyl-phenyl)-ethyl]-4,7-dihydro-5H-thieno[2,3-c]pyridin-6-yl}-acetamide], for which the values for the Kb in test [1] and in test [2] were 0.0148 µM and 0.0524 µM, respectively.
For `CNC(=O)C(c1ccccc1)N1CCc2ncccc2C1CCc1ccc(OC)cc1` (single isomer, unassigned) [Example 11, 2-{5-[2-(4-Methoxy-phenyl)-ethyl]-7,8-dihydro-5H-[1,6]naphthyridin-6-yl}-N-methyl-2-phenyl-acetamide] the same measures were 0.0215 µM and 0.164 µM.
Take `CNC(=O)C(c1ccccc1)N1CCc2ncccc2C1CCc1cccc(OC)c1` (single isomer, unassigned) [Example 25, 2-{5-[2-(3-Methoxy-phenyl)-ethyl]-7,8-dihydro-5H-[1,6]naphthyridin-6-yl}-N-methyl-2-phenyl-acetamide]: the values for the antagonist dissociation constant (Kb) in test [1] and in test [2] were 0.0296 µM and 0.108 µM, respectively.
For `CNC(=O)C(c1ccccc1)N1CCc2ncccc2C1CCc1ccc(OC)cc1` (single isomer, unassigned) [Example 22, 2-{5-[2-(4-Methoxy-phenyl)-ethyl]-7,8-dihydro-5H-[1,6]naphthyridin-6-yl}-N-methyl-2-phenyl-acetamide] the same measures were 0.038 µM and 0.105 µM.
